# Results published in patent publication US11065211B2, “Isoxylitones mediated neurogenesis” (priority 2018, dated 2021).
# Test system: cortical cells and hippocampal cells
# Experiment: MTT assay, in vitro screening of compounds for cell proliferation activity
# Format: cell-based, rat
# Conditions: 24 hrs treatment
# Source text: The Tetrazolium MTT [3-(4, 5-dimethyl thiazol-2-yl)-2,5-diphenyl tetrazolium bromide] Assay: MTT assay was used to screen various compounds for their proliferating effect on cortical cells and hippocampal cells. The principle of MTT test is based on the ability of live cells to form insoluble purple formazan product from the breakdown of the water soluble yellow tetrazolium salt by mitochondrial enzyme succinate dehydrogenase (Mosmann, 1983). The resulting intracellular purple formazan can quantify by spectrophotometric means. The MTT Cell Proliferation Assay measures the cell proliferation rate and conversely, when metabolic events lead to apoptosis or necrosis, the reduction in cell viability.
# The density of the cortical and hippocampal cells was adjusted at the density 2×10^5 cells/mL in complete DMEM medium (5% FBS). The cells (5000/well) were then plated in 96-wells plate and incubated for 24 hrs at 37° C. with 5% CO2. Following 24 hrs incubation, media was removed and 100 μL of each test compounds in DMEM media (5% FBS) were added. […] The culture plates were re-incubated for 24 hrs at 37° C. in 5% CO2. Cells treated with 0.1% DMSO in complete media (5% FBS) were used as vehicle controls. […] The absorbance was read at 495 nm on spectrophotometer. […] The percent rate of proliferation was calculated using the following formula, % rate of proliferation={(At−Ab)/(Ac−Ab)}×100
smiles,measurement,value
"CC1=CC(=CC(=O)O)CC(C)(C)C1 (mixture of isomers) [acid analog, (E/Z)-2-(3,5,5-trimethylcyclohex-2-enylidene)acetic acid]",activity on the cell proliferation (MTT screening),significant potent activity of isoxylitones followed by acid analog
